Patent publication EP2292225A1 (priority 1997, dated 1998)
Where two headings read alike, the source gives them in different places.

How the values were obtained:
[1] = test system: Vascular smooth muscle (BO54) cells; assay type: cell-based, baboon
[2] = test system: vascular smooth muscle cells; assay type: in vivo, pig; conditions: 4 days post-trauma
[3] = Seven day intravenous toxicity study; assay type: in vivo, beagle dogs; conditions: seven consecutive days, 10080 min
[4] = test system: Pig femoral arteries; assay: Biological stenting of balloon traumatized femoral arteries (luminal area morphometry); assay type: in vivo
Procedure: Pig femoral arteries were traumatized as described in Example 7, and then treated with cytochalasin B. About 1.5 to about 2 ml of cytochalasin B at 0.1 µg/ml was infused into portions of the artery that had been separated from other portions by ligatures. The artery was then pressurized for 3 minutes and the fluid aspirated. Approximately 8 to about 30 lambda of the solution is retained in the interstitial space surrounding the cells in the tunica media. Ten femoral arteries (two arteries obtained from each of the 5 pigs that were treated according to the single dose protocol described in Example 7) were then evaluated histologically at 4 days or 3 weeks after cytochalasin B adminstration. The maximal luminal area of each artery was measured and calculated from digitized microscopic images by a BQ System IV computerized morphometric analysis system (R & M Biometrics, Inc., Nashville, TN). This experiment was repeated with 5 additional pigs (two arteries per pig; cytochalasin B dose = 0.1 µg/ml, applied for 3 minutes at 1 atm pressure; same time points). The data obtained from the two experiments were combined.
The luminal area of the traumatized and cytochalasin B-treated segments of the arteries were also compared to the luminal area of the normal, untreated region of the femoral artery proximal to the test area.
A cytochalasin B dose response study was then conducted on 10 pigs, following the experimental protocol described in Example 7. Briefly, both femoral arteries in each of 2 pigs were treated with one of the following doses of cytochalasin B: 0.0 µg/ml (i.e., PBS negative control); 0.01 µg/ml; 0.10 µg/ml; 1.0 µg/ml; and 10.0 µg/ml as described above. The agent was delivered by intraluminal catheter at 1 atm pressure for 3 minutes, and the arteries were evaluated 3 weeks later by the morphometric analysis system described above. The ratio of treated artery luminal area to proximal normal artery luminal area was determined as a percent change in treated vs. normal area, or the artery lumen size (diameter or cross sectional area) of treated arteries relative to traumatized but untreated arteries.
Balloon traumatized swine femoral arteries from control and treated (0.1 µg/ml cytochalasin B) were evaluated at 1, 4, 7, 14, or 21 days after intervention. […] A two way analysis of variance indicated a statistically significant difference (p<.05) in the artery lumen areas over three weeks between the cytochalasin B treated and diluent control groups.

[5] = test system: Vascular smooth muscle cells; conditions: 1 µg/ml; an anti-migration/contraction effective dose
[6] = test system: Vascular smooth muscle cells (BO54); assay: Scratch assay of smooth muscle cell migration; assay type: cell-based, baboon; design: key: - = no toxicity; +1 = minimal; +2 = mild; +3 = moderate; +4 = marked toxicity; conditions: Day 1/3/6/8/10 = r6/r8/r10/r12/r14
Procedure: (§1) Scratch assays to determine the extent of smooth muscle cell migration inhibition by cytochalasin B were performed in accordance with the following protocol: • Vascular smooth muscle cells (BO54) were derived from explants of baboon aortic smooth muscle, as described in Example 10. The cells were grown in flat bottom, six well tissue culture plates, which hold about 5 ml of medium. The vascular smooth muscle cells were plated at 200,000 cells/well and placed at 37°C in a humidified 5% CO2 incubator for 18 hours. The wells were then scratched with a sterile portion of a single edge razor blade that was held by clamp or pliers and was brought aseptically into contact with the bottom of the well at a 90° angle. The cells from a small area along the scratch were removed by a sterile cotton tipped applicator while the blade was in contact with the bottom of the well. After incubation, the presence of cells in the "scratched" area is indicative of cell migration across the scratch line.
(§2) Briefly, a stock solution of cytochalasin B (Sigma Chemical Co.) in dimethyl sulfoxide (DMSO) at 1 mg/ml was prepared. Test dilutions of cytochalasin B or control medium were added. Each experiment included two sets of plates: A set: Test agent exposure for 1, 3, 6, 8 and 10 days only; and B set: Test agent exposure for 1, 3, 6, 8 and 10 days, followed by a seven day recovery time with control medium. Both sets of plates were fixed (10% formalin in PBS) and stained (0.02% crystal violet) at the end of the timed exposures. Test concentrations for cytochalasin B were 1, 0.1 and 0.01 µg/ml, and a negative medium control was included. Fresh medium and drug were supplied 3 times per week.
(§3) In this Table, "M" indicates Migration Grade, wherein - = no migration; +1 = minimal; +2 = mild; +3 = moderate; and +4 = marked (maximum density; limit of cell contact inhibition) migration of vascular smooth muscle cells into the cleared area adjacent to the scratch. In this Table, "T" denotes a morphological Toxicity Grade, wherein - = no toxicity; +1 = minimal; +2 = mild; +3 = moderate; and +4 = marked toxicity. The migration results are expressed as "Grade in the Cleared Area of the Well / Grade in an Undisturbed Region of the Well." The toxicity values represent a grade for all cells in each well.

[7] = test system: Vascular smooth muscle cells (BO54); assay: Scratch assay of smooth muscle cell migration; assay type: cell-based, baboon; design: key: - = no migration; +1 = minimal; +2 = mild; +3 = moderate; +4 = marked (maximum density; limit of cell contact inhibition) migration; conditions: for Migration Grade in an Undisturbed Region of the Well / Migration Grade in the Cleared Area of the Well: Day 1/3/6/8/10 = r5/r7/r9/r11/r13; for morphological Toxicity Grade: Day 1/3/6/8/10 = r6/r8/r10/r12/r14, listed as CY[…]
Procedure: as §1, §2, §3

[8] = 7-day Recovery Post Exposure, 1.0 µg/mL

## C=C1[C@@H](C)[C@H]2[C@H](Cc3ccccc3)NC(=O)[C@]23OC(=O)/C=C/[C@H](O)CCC[C@@H](C)C/C=C/[C@H]3[C@@H]1O [cytochalasin B]
[1]; 5 minute exposure
  minimum effective dose (MED), protein synthesis assay: 10 µg/mL
[1]; 24 hour exposure
  minimum effective dose (MED), protein synthesis assay: 1.0 µg/mL
[2]
  BRDU labeling grade: 4 (4 = > 10/HPF)
[3]
  dose without any indication of adverse effects or toxicity: up to 648 µg/kg/day
[4]; 0.1 µg/ml, 1 atm for 3 minutes, 3 weeks later
  percent change in treated vs. normal luminal area: ~140%
[4]; 0.1 µg/ml, 1, 4, 7, 14, or 21 days after intervention
  artery lumen area over three weeks: sustained dilation which changed very little between days 7 and 21
[4]; 0.1 µg/ml, 4 day and 3 week post-treatment
  luminal area compared to other test agents or controls: larger luminal area
[4]; at 10 µg/ml
  toxicity: no evidence of toxicity
[4]; no effect below this dose
  threshold level of the therapeutic effect: 0.1 µg/mL
[4]; pig, in vivo
  lumen area in the test region compared to the normal control segment of the same artery: approximately two times as large
[5]
  cytotoxicity grade: 1
[6]; 7-day Recovery Post Exposure, 0.01 µg/mL
  morphological Toxicity Grade: -
[6]; 7-day Recovery Post Exposure, 0.1 µg/mL
  morphological Toxicity Grade: -
[6]; Continuous Exposure, 0.1 µg/mL, listed as CY[…]
  morphological Toxicity Grade: -
[6]; Continuous Exposure, 1.0 µg/mL, listed as CY[…]
  morphological Toxicity Grade: +4
[7]; [8]
  Migration Grade in an Undisturbed Region of the Well: +3
  Migration Grade in the Cleared Area of the Well: +2
[7]; Continuous Exposure, 0.1 µg/mL
  morphological Toxicity Grade: +1
[7]; Continuous Exposure, 1.0 µg/mL
  Migration Grade in an Undisturbed Region of the Well: +2
  Migration Grade in the Cleared Area of the Well: -
  morphological Toxicity Grade: +3
